Assay results reported in patent publication US20100210694A1 (NICOX S.A., priority 2007, published 2010).
Read-outs that look alike come from different tables or passages of the source.

Columns and labels:
[1] = system: rat aorta strips; test: Vasodilating activity on precontracted rat aorta strips; assay type: cell-based; details: endothelium-denuded rat aortic strips contracted with 1 μM L-phenylephrine; for EC50: read-out: vasodilating activity EC50 ± SE
Procedure: Thoracic aortas were isolated from male Wistar rats weighing 180-200 g. The endothelium was removed and the vessels were helically cut: three strips were obtained from each aorta. The tissues were mounted under 1.0 g tension in organ baths containing 30 ml of Krebs-bicarbonate buffer with the following composition (mM): NaCl 111.2, KCl 5.0, CaCl2 2.5, MgSO4 1.2, KH2PO4 1.0, NaHCO3 12.0, glucose 11.1, maintained at 37° C. and gassed with 95% O2-5% CO2 (pH=7.4). The aortic strips were allowed to equilibrate for 120 min and then contracted with 1 μM L-phenylephrine. When the response to the agonist reached a plateau, cumulative concentrations of the vasodilating agent were added.
All the compounds of the invention were capable to relax precontracted rat aorta strips in a concentration dependent manner.
When the vasodilator experiments were repeated in the presence of 1 μM ODQ (1H-[1,2,4]oxadiazolo[4,3-a]quinoxalin-1-one), a well known inhibitor of the soluble guanylate cyclase (sGC), a decrease in the vasodilator potencies was observed.

[2] = system: human platelets; test: Inhibition of platelet aggregation in vitro; assay type: cell-based; details: human PRP, collagen 1.0 μg/mL
Procedure: Platelet rich plasma (PRP) is prepared by centrifugation of citrated blood at 200 g for 20 minutes. […] Collagen (1.0 μg/mL) is used as platelet activator in PRP. The inhibitory activity of the compounds is tested by addition of drug to PRP 10 or 30 min before addition of the stimulus.
The antiaggregatory activity of the compounds of the invention is evaluated as % inhibition of platelet aggregation compared to control samples.

[3] = Hydrolysis in human serum; assay type: in vitro ADME; details: male, 37 °C, compound 250 μM, read-out: Human serum stability t1/2
Procedure: A solution of each compound of the invention (10 mM) in acetonitrile was added to human serum (from human male AB plasma, Sigma) preheated at 37° C., the final concentration of the compound was 250 μM. Resulting solution were incubated at 37±0.5° C. and at appropriate time intervals 500 μL of reaction mixture was withdrawn and added to 750 μL of acetonitrile containing 0.1% trifluoroacetic acid in order to deproteinize the serum. Sample was sonicated, vortexed and then centrifuged for 10′ at 2150 g. The clear supernatant was filtered by 0.45 μm PTFE filters (Alltech) and analysed by RP-HPLC.
(§1) Analyses were carried out with a HP 1100 chromatograph system (Agilent Technologies, Palo Alto, Calif., USA) equipped with a quaternary pump (model G1311A), a membrane degasser (G1379A), a diode-array detector (DAD) (model G1315B) integrated in the HP1100 system. Data analysis was done using a HP ChemStation system (Agilent Technologies). The analytical column was a Nucleosil 100-5018 Nautilus (250×4.6 mm, 5 μm particle size) (Macherey-Nagel). The mobile phase consisting of acetonitrile/water (55/45) with 0.1% trifluoroacetic acid and the flow-rate was 1.2 mL/min. The injection volume was 20 μL (Rheodyne, Cotati, Calif.). The column effluent was monitored at 240 nm (for salicylic acid) and at 226 nm (for all the other products) and referenced against a 360 nm wavelength. Quantitation was done by comparison of peak areas with standards chromatographed under the same conditions. The hydrolysis followed first-order kinetics. The observed pseudo-first-order rate constants (kobs) were calculated from the slopes of linear plots of the natural logarithms of percent remaining products against time and the corresponding half-lives (t1/2) were obtained from […]

[4] = Hydrolysis in acidic medium (pH 1) and in phosphate buffer (pH 7.4); assay type: physicochemical; details: for Stability in buffered solutions pH 1 % unchanged after 6 h: HCl 0.1M, pH 1, 37 °C; for Stability in buffered solutions pH 1 % unchanged after 6 h / Stability in buffered solutions pH 7.4 % unchanged after 6 h: 250 μM; for Stability in buffered solutions pH 7.4 % unchanged after 6 h: phosphate buffer 50 mM pH 7.4, 37 °C
Procedure: A solution of each compound of the invention (10 mM) in acetonitrile was added to a HCl 0.1M or to a phosphate buffer 50 mM pH=7.4, containing, when necessary, 10-20% of acetonitrile as cosolvent. The final concentration of the compound was 250 μM. Resulting solution was kept at 37±0.5° C. and at appropriate time intervals a 20 μL aliquote of reaction solution was analysed by RP-HPLC.
as §1

[5] = drug added 10 min before stimulus, read-out: Platelet Aggregation IC50 (collagen 95%) 10 min
[6] = drug added 30 min before stimulus, read-out: Platelet Aggregation IC50 (collagen 95%) 30 min

Row | Compound | EC50 [1] [µM] | half-life at 250 μM [3] [min] | Stability in buffered solutions pH 1 % unchanged after 6 h [4] [%] | Stability in buffered solutions pH 7.4 % unchanged after 6 h [4] [%] | other results
1 | CC(=O)Oc1ccccc1C(=O)OCOC(=O)c1ccc(SCc2no[n+]([O-])c2C)cc1 [(20), [(4-{[(3-Methyl-furoxan-4-yl)methyl]thio}benzoyl)oxy]methyl 2-(acetyloxy)benzoate] | – | – | – | – | melting point: 96 to 97 °C
2 | CC(=O)Oc1ccccc1C(=O)OCOC(=O)CCCCO[N+](=O)[O-] [(4)] | 1.9 ± 0.5 | – | – | – | –
3 | CC(=O)Oc1ccccc1C(=O)OCOC(=O)c1ccc(CCCO[N+](=O)[O-])cc1 [(12), ({4-[3-(Nitrooxy)propyl]benzoyl}oxy)methyl 2-(acetyloxy)benzoate] | 0.075 ± 0.014 | – | – | – | IC50 [2, 5]: 41 µM; IC50 [2, 6]: 14 µM
4 | CC(=O)Oc1ccccc1C(=O)OCOC(=O)c1ccccc1OC(=O)CCC(CO[N+](=O)[O-])O[N+](=O)[O-] (centres unmarked) [(13), [(2-{[4,5-Bis(nitrooxy)pentanoyl]oxy}benzoyl)oxy]methyl 2-(acetyloxy)benzoate] | 0.082 ± 0.014 | – | – | – | –
5 | CC(=O)Oc1ccccc1C(=O)OCOC(=O)Cc1ccc(OCC(CO[N+](=O)[O-])O[N+](=O)[O-])cc1 (centres unmarked) [(10), [(2-{4-[2,3-Bis(nitrooxy)propoxy]phenyl}acetyl)oxy]methyl 2-(acetyloxy)benzoate] | 0.27 ± 0.05 | – | – | – | –
6 | CC(=O)Oc1ccccc1C(=O)OC(C)OC(=O)c1ccc(SCCCO[N+](=O)[O-])cc1 (centres unmarked) [(24), 1-{[4-([3-(nitrooxy)propyl]thio}benzoyl)oxy]ethyl 2-(acetyloxy)Benzoate] | – | 4.2 | >98 | >98 | –
7 | CC(=O)Oc1ccccc1C(=O)OCOC(=O)CCCCC(CO[N+](=O)[O-])O[N+](=O)[O-] (centres unmarked) [(8), {[6,7-Bis(nitrooxy)heptanoyl]oxy}methyl 2-(acetyloxy)benzoate] | 0.52 ± 0.09 | 2.5 | >98 | 100 | –
8 | CC(=O)Oc1ccccc1C(=O)OCOC(=O)c1ccc(SCCCO[N+](=O)[O-])cc1 [(11), [(4-{[3-(Nitrooxy)propyl]thio}benzoyl)oxy]methyl 2-(acetyloxy)benzoate] | – | 2 | >98 | >98 | –
9 | CC(=O)Oc1ccccc1C(=O)O [Aspirin, reference compound] | – | 63 | – | – | vasodilating activity EC50 ± SE [1]: no effect
10 | CC(=O)Oc1ccccc1C(=O)OCOC(=O)CCCCCO[N+](=O)[O-] [(5), {[6-(Nitrooxy)hexanoyl]oxy}methyl 2-(acetyloxy)benzoate] | 1.2 ± 0.2 | – | – | – | –
11 | CC(=O)Oc1ccccc1C(=O)OCOC(=O)c1ccc(SCc2no[n+]([O-])c2C(N)=O)cc1 [(21), [(4-{[(3-Aminocarbonyl-furoxan-4-yl)methyl]thio}benzoyl)oxy]methyl 2-(acetyloxy)benzoate] | – | – | – | – | melting point: 149 to 151 °C
12 | CC(=O)Oc1ccccc1C(=O)OCOC(=O)Cc1ccc(OCCCO[N+](=O)[O-])cc1 [(9)] | 0.3 ± 0.06 | 1.5 | >98 | >98 | –
13 | CC(=O)Oc1ccccc1C(=O)OCOC(=O)c1ccc(S(=O)(=O)CCCO[N+](=O)[O-])cc1 [(15), [(4-{[3-(Nitrooxy)propyl]sulfonyl}benzoyl)oxy]methyl 2-(acetyloxy)benzoate] | – | 1 | >98 | 70 | IC50 [2, 5]: 34 µM; IC50 [2, 6]: 17 µM; half-life at 250 μM ([4]; phosphate buffer 50 mM pH 7.4, phosphate buffer pH 7.4, 37 °C, read-out: t1/2 in buffered solution pH 7.4): ~720 min
14 | CC(=O)Oc1ccccc1C(=O)OCOC(=O)CCCC(CO[N+](=O)[O-])O[N+](=O)[O-] (centres unmarked) [(6), {[5,6-Bis(nitrooxy)hexanoyl]oxy}methyl 2-(acetyloxy)benzoate] | 0.39 ± 0.06 | 2.7 | >98 | 100 | –
15 | CC(=O)Oc1ccccc1C(=O)OCOC(=O)CCCCCCO[N+](=O)[O-] [(7), {[7-(Nitrooxy)heptanoyl]oxy}methyl 2-(acetyloxy)benzoate] | 1.6 ± 0.2 | – | – | – | –
16 | CC(=O)Oc1ccccc1C(=O)OCOC(=O)c1ccc(SCC(CO[N+](=O)[O-])O[N+](=O)[O-])cc1 (centres unmarked) [(16), [(4-{[2,3-Bis(nitrooxy)propyl]thio}benzoyl)oxy]methyl 2-(acetyloxy)benzoate] | – | 4.8 | >98 | >98 | –
17 | CC(=O)Oc1ccccc1C(=O)OCOC(=O)c1ccc(CC(CO[N+](=O)[O-])O[N+](=O)[O-])cc1 (centres unmarked) [(1), ({4-[2,3-Bis(nitrooxy)propyl]benzoyl}oxy)methyl 2-(acetyloxy)benzoate] | 0.052 ± 0.007 | 3.4 | >98 | 100 | –
18 | CC(=O)Oc1ccccc1C(=O)OCOC(=O)c1ccc(OCCCO[N+](=O)[O-])cc1 [(2), ({4-[3-(Nitrooxy)propoxy]benzoyl}oxy)methyl 2-(acetyloxy)benzoate] | 0.017 ± 0.003 | 3 | >98 | >98 | –
19 | CC(=O)Oc1ccccc1C(=O)OCOC(=O)c1ccc(OCCCO[N+](=O)[O-])cc1O [(14), {[2-(Acetyloxy)benzoyl]oxy}methyl 2-hydroxy-4-[3-(nitrooxy)propoxy]benzoate] | 0.008 ± 0.0011 | – | – | – | –
20 | CC(=O)Oc1ccccc1C(=O)OCOC(=O)c1ccc(OCC(CO[N+](=O)[O-])O[N+](=O)[O-])cc1 (centres unmarked) [(3), ({4-[2,3-Bis(nitrooxy)propoxy]benzoyl}oxy)methyl 2-(acetyloxy)benzoate] | 0.041 ± 0.007 | 5.4 | >98 | >98 | –
21 | CC(=O)Oc1ccccc1C(=O)OCOC(=O)c1ccc(SCc2no[n+]([O-])c2C#N)cc1 [(22), [(4-{[(3-Cyano-furoxan-4-yl)methyl]thio}benzoyl)oxy]methyl 2-(acetyloxy)benzoate] | – | – | – | – | melting point: 98.5 to 101.5 °C
